Data set [1] deals with T1, RPMI 8866 cells (Homo sapiens, UniProt P13612+P26010).
T1 sequence (P13612 34-1032): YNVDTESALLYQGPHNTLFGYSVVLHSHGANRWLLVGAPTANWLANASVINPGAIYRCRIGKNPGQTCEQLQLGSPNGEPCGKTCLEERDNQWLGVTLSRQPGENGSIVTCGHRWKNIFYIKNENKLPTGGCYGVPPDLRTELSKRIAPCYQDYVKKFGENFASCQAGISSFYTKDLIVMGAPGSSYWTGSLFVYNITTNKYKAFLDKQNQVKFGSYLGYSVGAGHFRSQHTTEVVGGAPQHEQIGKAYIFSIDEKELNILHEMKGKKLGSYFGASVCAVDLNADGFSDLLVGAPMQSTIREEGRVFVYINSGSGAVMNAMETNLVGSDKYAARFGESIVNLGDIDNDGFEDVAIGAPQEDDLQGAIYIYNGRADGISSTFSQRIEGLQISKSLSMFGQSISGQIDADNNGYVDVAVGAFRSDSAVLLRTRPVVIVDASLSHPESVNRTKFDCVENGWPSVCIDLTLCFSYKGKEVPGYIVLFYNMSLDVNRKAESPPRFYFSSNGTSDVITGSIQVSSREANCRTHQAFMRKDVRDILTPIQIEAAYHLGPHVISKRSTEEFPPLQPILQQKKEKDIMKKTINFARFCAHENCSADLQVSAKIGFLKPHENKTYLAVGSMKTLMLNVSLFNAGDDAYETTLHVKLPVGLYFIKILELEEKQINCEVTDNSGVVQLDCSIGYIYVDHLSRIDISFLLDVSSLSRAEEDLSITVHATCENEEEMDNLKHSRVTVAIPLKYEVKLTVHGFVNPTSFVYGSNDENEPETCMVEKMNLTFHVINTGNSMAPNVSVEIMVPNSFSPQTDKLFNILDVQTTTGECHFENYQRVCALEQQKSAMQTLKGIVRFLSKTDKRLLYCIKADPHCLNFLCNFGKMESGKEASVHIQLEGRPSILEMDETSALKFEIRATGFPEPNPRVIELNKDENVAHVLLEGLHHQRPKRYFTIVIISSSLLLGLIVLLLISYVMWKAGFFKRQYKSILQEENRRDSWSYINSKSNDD
T1 sequence (P26010 20-798): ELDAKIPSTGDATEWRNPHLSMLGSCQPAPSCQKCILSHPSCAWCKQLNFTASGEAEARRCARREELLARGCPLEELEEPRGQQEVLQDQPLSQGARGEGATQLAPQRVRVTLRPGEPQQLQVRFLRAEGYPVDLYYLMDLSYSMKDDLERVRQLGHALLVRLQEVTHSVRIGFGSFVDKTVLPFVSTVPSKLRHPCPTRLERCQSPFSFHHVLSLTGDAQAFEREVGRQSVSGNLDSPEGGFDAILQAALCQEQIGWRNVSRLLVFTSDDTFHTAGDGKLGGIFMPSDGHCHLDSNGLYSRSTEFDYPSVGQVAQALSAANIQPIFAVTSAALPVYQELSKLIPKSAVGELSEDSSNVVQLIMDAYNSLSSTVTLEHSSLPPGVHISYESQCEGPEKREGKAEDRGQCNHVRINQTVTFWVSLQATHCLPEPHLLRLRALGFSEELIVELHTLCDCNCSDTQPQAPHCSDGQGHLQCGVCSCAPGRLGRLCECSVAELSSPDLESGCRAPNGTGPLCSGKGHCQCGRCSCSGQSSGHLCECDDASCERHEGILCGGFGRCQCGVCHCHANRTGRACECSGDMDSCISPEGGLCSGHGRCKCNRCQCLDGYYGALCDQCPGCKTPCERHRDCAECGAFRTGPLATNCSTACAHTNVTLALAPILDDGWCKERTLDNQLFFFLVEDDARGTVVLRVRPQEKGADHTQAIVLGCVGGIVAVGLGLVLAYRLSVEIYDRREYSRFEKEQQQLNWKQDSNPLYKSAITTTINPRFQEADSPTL
Briefly: α4β7-MAdCAM Cell Adhesion Assay. It counts as cell-based. As to conditions: read-out: Cell-Adhesion A4B7. An outline of the steps:
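RPMI 8866 cells (200,000/well) in DMEM with 1 mM MnCl2 and 0.1% BSA were allowed to adhere 30-45 min at 37° C to plates coated with rh MAdCAM-1/Fc (200 ng/well) in presence of serially diluted peptide. After washing, bound cells quantified by MTT, absorbance 570 nm, cell-free background subtracted.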

Data set [2] in a line: Simulated Intestinal Fluid (SIF) Stability Assay. It counts as in vitro ADME. The following applies: pig, 37° C.; for half-life: porcine pancreatin; for half-life at 22 μM: simulated intestinal fluid (SIF) with 1% porcine pancreatin, pH 6.5, porcine pancreatin. Here is the method: Simulated Intestinal Fluid (SIF) Stability Assay
Studies were carried out in simulated intestinal fluid (SIF) to evaluate intestinal stability of the peptide molecules of the instant invention. To prepare the SIF reagent, blank FASSIF was prepared by dissolving 0.348 g NaOH, 3.954 g sodium phosphate monobasic monohydrate and 6.186 g NaCl in a final volume of 1 liter water (final pH=6.5). To this solution, 24 g porcine pancreatin (Sigma catalog P7545) was added and stirred for 30 minutes (final pancreatin concentration is 2.4%). The solution was filtered through a cheese cloth and a No. 1 Whatman filter, and 10 ml aliquots were stored at −70° C. To run the reaction, a 10 ml aliquot was thawed at 37° C., and 125 μl aliquots were removed and mixed with an equal volume of blank FASSIF. The peptide stock solution (10 mM in 100% DMSO) was diluted 75-fold in blank FASSIF. A 50 μl aliquot of the diluted peptide was combined with 125 μl pancreatin (2.4%) and 125 μl blank FASSIF to yield final concentrations of 1% pancreatin and 22 μM peptide. The reactions were incubated at 37° C., and at various time points 50 μl aliquots were removed and added to 200 μl of quench solution containing 50% acetonitrile, 50% methanol, 5% formic acid, and 1 μg/ml internal standard. The quenched samples were centrifuged at 10,000 rpm for 10 minutes, and the supernatants were analyzed by LCMS/MS. The percent remaining at each time point was calculated based on the peak area response ratio of test to compound to internal standard. Half-lives were calculated by fitting to a first-order exponential decay equation using GraphPad. A small sampling of the results of these studies is provided and discussed herein and in the accompanying figures.

[3] abbreviates: thioether monomer peptides, Table 6.
Setting [4] is: thioether peptide dimers, Table 7.

For orientation: half-life means the time needed for the level to fall by half in the phase considered.

Like-named read-outs stand apart in the source and are kept apart here. *1 amine or outer side, *2 acyl side, *3 side chain or, on linkers, in order; H or OH if unused. Where a SMILES comes first, the peptide text is derived from it. Bridges are numbered along the chain shown (N, C = ends). Roman numbers before positions name the chains, in order. [ ]: non-standard residue; d: D form. Phe(3-Me) = Cc1cccc(C[C@H](N)C(=O)O)c1; Phe(4-Me) = Cc1ccc(C[C@H](N)C(=O)O)cc1; 2Nal = N[C@@H](Cc1ccc2ccccc2c1)C(=O)O; Diglycolyl = O=C(COCC(=O)[*:2])[*:1]; Phe(2-Me) = Cc1ccccc1C[C@H](N)C(=O)O; NMeR = CN[C@@H](CCCNC(=N)N)C(=O)O; Tic = O=C(O)[C@@H]1Cc2ccccc2CN1; β3hE = N[C@@H](CCC(=O)O)CC(=O)O; X1 = O=C(c1ccccc1C[*:2])[*:1]; Pen = CC(C)(S)[C@H](N)C(=O)O Where only a bound is given, the exact number is not on record here.

`Cc1cccc(C[C@H](NC(=O)[C@H]2NC(=O)[C@H](CC(C)C)NC(=O)[C@H]([C@@H](C)O)NC(=O)[C@H](CC(=O)O)NC(=O)[C@H](CO)NC(=O)[C@H](CCCNC(=N)N)N(C)C(=O)c3ccccc3CSC2(C)C)C(=O)N[C@@H](CCC(=O)O)CC(N)=O)c1` [compound 125] ([NMeR]SDTL[Pen][Phe(3-Me)][β3hE]-NH2; linker N-6 via X1): in data set [1] (setting [3]), the IC50 was less than 25 nM. Moreover, the half-life in data set [2] (monomers, Table 6) is more than 3 h.
The corresponding values for `Cc1ccccc1C[C@H](NC(=O)[C@H]1NC(=O)[C@H](CC(C)C)NC(=O)[C@H]([C@@H](C)O)NC(=O)[C@H](CC(=O)O)NC(=O)[C@H](CO)NC(=O)[C@H](CCCNC(=N)N)N(C)C(=O)c2ccccc2CSC1(C)C)C(=O)N[C@@H](CCC(=O)O)CC(N)=O` [compound 126] ([NMeR]SDTL[Pen][Phe(2-Me)][β3hE]-NH2; linker N-6 via X1) are 25 to 100 nM and more than 3 h.
`Cc1ccc(C[C@H](NC(=O)[C@H]2NC(=O)[C@H](CC(C)C)NC(=O)[C@H]([C@@H](C)O)NC(=O)[C@H](CC(=O)O)NC(=O)[C@H](CO)NC(=O)[C@H](CCCNC(=N)N)N(C)C(=O)c3ccccc3CSC2(C)C)C(=O)N[C@@H](CCC(=O)O)CC(N)=O)cc1` [compound 132] ([NMeR]SDTL[Pen][Phe(4-Me)][β3hE]-NH2; linker N-6 via X1): the IC50 in data set [1] (setting [3]) is less than 25 nM. Moreover, in data set [2] (monomers, Table 6), the half-life was more than 3 h.
`CC(C)C[C@@H]1NC(=O)[C@H]([C@@H](C)O)NC(=O)[C@H](CC(=O)O)NC(=O)[C@H](CO)NC(=O)[C@H](CCCNC(=N)N)N(C)C(=O)CCSCC[C@@H](C(=O)N[C@@H](Cc2c[nH]c3ccccc23)C(=O)N[C@H](CCCCNC(=O)COCC(=O)NCCCC[C@@H](NC(=O)[C@H](Cc2c[nH]c3ccccc23)NC(=O)[C@@H]2CCSCCC(=O)N(C)[C@@H](CCCNC(=N)N)C(=O)N[C@@H](CO)C(=O)N[C@@H](CC(=O)O)C(=O)N[C@@H]([C@@H](C)O)C(=O)N[C@@H](CC(C)C)C(=O)N2)C(N)=O)C(N)=O)NC1=O` [compound 149]: the IC50 in data set [1] (setting [4]) is more than 1000 nM. The half-life in data set [2] (dimers, Table 7) was less than 0.333 h.
For the compound `CC(C)C[C@@H]1NC(=O)[C@H]([C@@H](C)O)NC(=O)[C@H](CC(=O)O)NC(=O)[C@H](CO)NC(=O)[C@H](CCCNC(=N)N)N(C)C(=O)c2ccccc2CSC(C)(C)[C@@H](C(=O)N[C@H](Cc2ccccc2)C(=O)N[C@@H](Cc2ccc3ccccc3c2)C(=O)N[C@H](CCCCNC(=O)COCC(=O)NCCCC[C@@H](NC(=O)[C@H](Cc2ccc3ccccc3c2)NC(=O)[C@@H](Cc2ccccc2)NC(=O)[C@H]2NC(=O)[C@H](CC(C)C)NC(=O)[C@H]([C@@H](C)O)NC(=O)[C@H](CC(=O)O)NC(=O)[C@H](CO)NC(=O)[C@H](CCCNC(=N)N)N(C)C(=O)c3ccccc3CSC2(C)C)C(N)=O)C(N)=O)NC1=O` [compound 162] (I: [NMeR]SDTL[Pen][dF][2Nal][dK]-NH2 / II: [NMeR]SDTL[Pen][dF][2Nal][dK]-NH2; linker I:9-II:9 via Diglycolyl; linker I:N-I:6, II:N-II:6 via X1), the IC50 in data set [1] (setting [4]) was 100 to 1000 nM. This compound also had a half-life at 22 μM in data set [2] (dimers, Table 7) of more than 3 h.
For `COC(=O)CC[C@H](NC(=O)[C@@H]1Cc2ccccc2CN1C(=O)[C@@H]1CSCc2ccccc2C(=O)N(C)[C@@H](CCCNC(=N)N)C(=O)N[C@@H](CO)C(=O)N[C@@H](CC(=O)O)C(=O)N[C@@H]([C@@H](C)O)C(=O)N[C@@H](CC(C)C)C(=O)N1)C(=O)N[C@H](CCCCN)C(N)=O` [compound 211] (HELM PEPTIDE1{[meR].S.D.T.L.C.[Tic].E.[dK].[am]}|CHEM1{[CO[*:1]]}|CHEM2{[O=C(c1ccccc1C[*:2])[*:1]]}$PEPTIDE1,CHEM1,8:R3-1:R1|PEPTIDE1,CHEM2,1:R1-1:R1|PEPTIDE1,CHEM2,6:R3-1:R2$$$V2.0), in that order: less than 25 nM and 0.117 h.
As to `CC(C)C[C@@H]1NC(=O)[C@H]([C@@H](C)O)NC(=O)[C@H](CC(=O)O)NC(=O)[C@H](CO)NC(=O)[C@H](CCCNC(=N)N)N(C)C(=O)c2ccccc2CSC[C@@H](C(=O)N2Cc3ccccc3C[C@H]2C(=O)N[C@H](CCCCN)C(N)=O)NC1=O` [compound 216] (HELM PEPTIDE1{[meR].S.D.T.L.C.[Tic].[dK].[am]}|CHEM1{[O=C(c1ccccc1C[*:2])[*:1]]}$PEPTIDE1,CHEM1,1:R1-1:R1|PEPTIDE1,CHEM1,6:R3-1:R2$$$V2.0), the IC50 in data set [1] (setting [4]) is less than 25 nM. The same compound showed a half-life at 22 μM in data set [2] (dimers, Table 7) of more than 3 h.
Consider `COC(=O)CC[C@H](NC(=O)[C@@H]1Cc2ccccc2CN1C(=O)[C@@H]1CSCc2ccccc2C(=O)N(C)[C@@H](CCCNC(=N)N)C(=O)N[C@@H](CO)C(=O)N[C@@H](CC(=O)O)C(=O)N[C@@H]([C@@H](C)O)C(=O)N[C@@H](CC(C)C)C(=O)N1)C(=O)N[C@H](CCCCNC(=O)COCC(=O)NCCCC[C@@H](NC(=O)[C@H](CCC(=O)OC)NC(=O)[C@@H]1Cc2ccccc2CN1C(=O)[C@@H]1CSCc2ccccc2C(=O)N(C)[C@@H](CCCNC(=N)N)C(=O)N[C@@H](CO)C(=O)N[C@@H](CC(=O)O)C(=O)N[C@@H]([C@@H](C)O)C(=O)N[C@@H](CC(C)C)C(=O)N1)C(=O)O)C(=O)O` [compound 220] (I: [NMeR]SDTLC[Tic]E(OMe)[dK]-OH / II: [NMeR]SDTLC[Tic]E(OMe)[dK]-OH; linker I:9-II:9 via Diglycolyl; linker I:N-I:6, II:N-II:6 via X1), for which the IC50 in data set [1] (setting [4]) is less than 25 nM. Besides, in data set [2] (dimers, Table 7), the half-life is more than 3 h.

Source of the values: patent publication US20260217767A1, “NOVEL A4B7 THIOETHER PEPTIDE DIMER ANTAGONISTS” (Protagonist Therapeutics, Inc., priority 2014, published 2026).
